Experiments:
[1] = test system: panel of 71 protein kinases; experiment: Caliper mobility shift enzymatic kinase selectivity screening; format: biochemical; settings: tested 0.1 nM to 10 μM; ATP at KM
Description: Enzymatic kinase selectivity screening was carried out using the Caliper mobility shift assay which is based on the difference in capillary electrophoresis mobility of a fluorescent tagged peptide as a result of the addition of a phosphate moiety by the studied kinase. The kinase reactions were started by addition of 4.5 μl substrate mix consisting of ATP and peptide substrate in assay buffer (50 mM HEPES [pH 7.5], 0.02% bovine serum albumin, 1 mM DTT, 0.02% Tween 20, 0.01 mM Na3VO4, 10 mM beta-glycerophosphate) and 4.5 μl enzyme solution in assay buffer. The peptide concentration was 2 μM. Concentrations for the enzyme, as well as for MgCl2 and MnCl2 were adjusted specifically to the requirements of the individual enzyme. ATP concentrations were adjusted to the KM values of the specific enzyme. After incubation for 60 min at 30°C the kinase reactions were stopped by addition of 16 μl stop solution (100 mM HEPES [pH 7.5], 5% DMSO, 0.1% coating reagent [Caliper Lifescience] 10 mM EDTA [pH 8.0], 0.015% BRIJ35). Stopped kinase reactions were analyzed in a LC3000 reader (Caliper Lifescience). Compounds were tested from 0.1 nM to 10 μM in eight steps.

[2] = test system: phosphorylated SR proteins in HMEC-1 cells; experiment: SR protein phosphorylation, western blotting; format: cell-based, human; settings: TNF-α-stimulated HMEC-1, increasing inhibitor concentration
Description: Western blot analysis of samples from cell lysates of inhibited, stimulated, and unstimulated HMEC-1 cells were performed as previously described ([Szotowski et al., 2005]). For detection of phosphorylated SR proteins, monoclonal antibody mAb1H4 (Invitrogen GmbH, Karlsruhe, Germany) was used.

[3] = test system: flTF and asHTF mRNA in HMEC-1 cells; experiment: TF isoform mRNA expression (RT-PCR)
Description: For inhibition experiments, HMEC-1 endothelial cells were switched to EC basal medium (without fetal calf serum) for 1 hr. […] Analysis of the TF isoform mRNA expression was done 1 hr post stimulation with TNF-α and assessment of the phosphorylation state of SR proteins by western blotting was performed 2 min post induction of the cells. Positive controls were stimulated only with TNF-α, and negative controls were untreated.

CCOC(=O)c1c(/C(C#N)=C\N)c2ccc(Cl)c(Cl)c2n1C [KH-CB19, (E)-Ethyl 3-(2-Amino-1-Cyanovinyl)-6,7-Dichloro-1-Methyl-1H-Indole-2-Carboxylate]
Inhibition of panel of 71 protein kinases [1]: No additional kinases from the panel were inhibited
Dose response of SRp75 and SRp55 phosphorylation [2]: significantly reduced at increasing concentration of the inhibitor
TNF-α-induced mRNA expression of flTF and asHTF ([3]; HMEC-1, 10 μM inhibitor, 10 ng/ml TNF-α, 1 hr post stimulation): lowered TNF-α-induced expression of both TF mRNA splice variants to baseline
Basal mRNA expression of flTF and asHTF ([3]; resting HMEC-1, 10 μM inhibitor): significantly reduced the basal expression of flTF as well as asHTF

Source: publication PMC3145970, “Specific CLK Inhibitors from a Novel Chemotype for Regulation of Alternative Splicing” (Chemistry & Biology, 2011)
